This note sets out measurements from patent US12263181B2, “Phospholipid compositions” (MACHAVERT PHARMACEUTICALS LLC, priority 2016, dated 2025).

Assay [1] deals with human pancreatic carcinoma cell line (Capan-2). The experiment in a line: In vivo tumor growth inhibition, Capan-2 xenograft in nude mice. Particulars: oral, 0.1 mL of a 30% (w/w) solution in sunflower oil once a day for 42 days. The protocol:
In vivo measurements of tumor growth inhibition in mice were conducted to determine efficacy of BAP(+), BAP(−), and fractions thereof. A human pancreatic carcinoma cell line (Capan-2 available from European Collection of Cell Cultures, Salisbury UK) was cultivated at 37° C. in a humidified 5% CO2/95% air atmosphere using high glucose D-MEM medium supplemented with 20% fetal bovine serum, 2% penicillin/streptomycin and 1.25% L-glutamine. Before application, cells were harvested by trypsinisation for 30 minutes. Harvested Capan-2 cells were administered subcutaneously to each mouse as 1×10^7 cells in a mixture with a basement membrane preparation (BD MATRIGEL, available from I.T.A.-Interact, Prague CZ). Administration was in the rear right flank of Hsd:athymic nude-Fox n1nu mice (available from Anlab, Prague CZ). […]
Table 12 gives the percentage of tumor weight growth inhibition (% WGI) as compared to the control for various BAP mixtures including BAP(−), BAP(+), pooled fractions F1-F4, F5, a fraction comprising a pooled collection of the F5 sub-fractions enriched in more PCs comprising saturated fatty acids acyl residues (“F5A”), a fraction which comprising a pooled collection of F5 sub-fractions enriched in more PCs comprising unsaturated fatty acid acyl residues (“F5B”), and a fraction of BAP(+) possibly enriched in LPC's (“F5C”). Glycerophosphocholine (GPC) was also evaluated. […]

For the next assay, the target named is T1, SPHK1 kinase (Homo sapiens, UniProt Q9NYA1).
T1 construct: purchased Life Technologies
The experiment in a line: FRET-peptide kinase inhibition (SELECTSCREEN Kinase Profiling Service). The format is biochemical. The note with it: 10 μM solution, ATP at Km. The protocol:
(§1) Inhibition of various kinases was measured using fluorescence resonance energy transfer (FRET) analysis. Briefly, a kinase is used to transfer the γ-phosphate of ATP to a single tyrosine, serine, or threonine residue in a synthetic FRET-peptide in the presence of each tested fraction. A kinase inhibitor will prevent phosphorylation. FRET-peptides comprise a donor fluorophore and an acceptor fluorophore, where the acceptor fluorophore will only undergo fluorescence from the excitation wavelength of the donor fluorophore due to resonant energy transfer through the peptide. A development reagent is used to cleave the un-phosphorylated FRET-peptides. An uncleaved FRET-peptide (i.e., phosphorylated peptide) will therefore undergo measureable FRET of both acceptor and donor and be indicative of kinase inhibition. […] Because phosphorylation of FRET-peptides suppresses cleavage by the development reagent, calculation of the ratio of donor emission to acceptor emission after excitation of the donor fluorophore at approximately 400 nm is used to quantitate reaction progress. Low ratios indicate the FRET-peptide is phosphorylated (i.e., little kinase inhibition) and high ratios […] (i.e., kinase inhibition). The percent phosphorylation can therefore be calculated from the emission ratio based on controls for the maximum and minimum phosphorylation. The percent inhibition can be calculated based on the percent phosphorylation of a sample with each fraction as compared to the percent phosphorylation without each fraction.
(§2) The kinase inhibitory activity of various 10 μM solutions of various fractions was measured using the SELECTSCREEN Kinase Profiling Service available from Life Technologies. Unless otherwise indicated, the concentration of ATP in each well is the Michaelis-Menten constant (Km value-the concentration of ATP when the phosphorylation reaction velocity is equal half of the maximal velocity for the reaction). […] Z′ is a measure of statistical effect size to assess the quality of the assay. Z′>0.5 is indicative measurement separated from the background and a reliable assay result. The average % inhibition is representative of two independent measurements.

The next assay deals with T2, mTOR kinase (Homo sapiens, UniProt P42345).
T2 construct: purchased Life Technologies
Described as above. The format is biochemical. The note with it: kinase FRAP1 (mTOR); 10 μM solution; ATP at Km. The protocol:
as §1, §2

Assay [2] deals with T3, various kinases (Homo sapiens, UniProt O14965).
T3 construct: purchased Life Technologies
T3 sequence (O14965 1-403): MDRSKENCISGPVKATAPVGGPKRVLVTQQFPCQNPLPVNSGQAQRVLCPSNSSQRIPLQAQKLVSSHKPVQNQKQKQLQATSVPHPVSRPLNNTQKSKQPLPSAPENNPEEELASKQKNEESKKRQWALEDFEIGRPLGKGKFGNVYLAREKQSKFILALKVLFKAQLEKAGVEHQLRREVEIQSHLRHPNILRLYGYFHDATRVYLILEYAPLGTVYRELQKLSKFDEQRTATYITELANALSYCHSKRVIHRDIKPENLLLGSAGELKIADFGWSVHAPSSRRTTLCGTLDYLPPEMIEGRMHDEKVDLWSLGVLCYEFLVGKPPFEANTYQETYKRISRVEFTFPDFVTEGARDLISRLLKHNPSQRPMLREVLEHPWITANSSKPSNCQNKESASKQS
The description is as above. The format is biochemical. Particulars: kinase AURKA (Aurora A); 10 μM solution; ATP at Km. Here is the method: as §1, §2

Assay [3] deals with T4, various kinases (Homo sapiens, UniProt P41279).
T4 construct: purchased Life Technologies
The description is as above. Type of assay: biochemical. Particulars: kinase MAP3K8 (COT); 10 μM solution; ATP concentration of 100 μM. Here is the method:
as §1, §2

For assay [4], the target named is T5, various kinases (Homo sapiens, UniProt P48736).
T5 construct: purchased Life Technologies
The assay is described as above. The format is biochemical. Particulars: kinase PIK3CG (p110 gamma); 10 μM solution; ATP at Km. Here is the method: as §1, §2

The target in assay [5] is T6, various kinases (Homo sapiens, UniProt Q8TF76).
T6 construct: purchased Life Technologies
T6 sequence (Q8TF76 1-798): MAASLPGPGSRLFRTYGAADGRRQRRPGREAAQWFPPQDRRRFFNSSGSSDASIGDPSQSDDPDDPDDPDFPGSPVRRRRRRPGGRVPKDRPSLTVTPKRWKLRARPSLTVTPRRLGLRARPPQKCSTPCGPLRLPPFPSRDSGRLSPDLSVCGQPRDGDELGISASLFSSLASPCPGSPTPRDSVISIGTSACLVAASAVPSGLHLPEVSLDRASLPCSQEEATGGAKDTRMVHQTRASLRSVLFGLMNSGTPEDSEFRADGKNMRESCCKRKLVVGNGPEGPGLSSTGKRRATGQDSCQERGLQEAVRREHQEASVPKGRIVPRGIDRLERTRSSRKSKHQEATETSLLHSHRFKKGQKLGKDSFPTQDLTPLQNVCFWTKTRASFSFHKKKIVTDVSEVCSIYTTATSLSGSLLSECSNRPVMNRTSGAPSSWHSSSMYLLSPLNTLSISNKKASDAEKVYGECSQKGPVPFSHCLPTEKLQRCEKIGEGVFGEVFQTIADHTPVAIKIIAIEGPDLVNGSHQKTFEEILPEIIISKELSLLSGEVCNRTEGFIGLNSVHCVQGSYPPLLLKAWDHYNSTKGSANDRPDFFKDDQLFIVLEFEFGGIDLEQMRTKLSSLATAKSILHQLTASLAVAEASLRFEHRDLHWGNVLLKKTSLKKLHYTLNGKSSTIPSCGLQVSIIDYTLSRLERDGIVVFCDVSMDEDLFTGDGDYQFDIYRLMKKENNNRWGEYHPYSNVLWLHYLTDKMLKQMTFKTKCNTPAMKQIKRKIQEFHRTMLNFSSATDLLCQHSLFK
The description is as above. Particulars: kinase GSG2 (Haspin); 10 μM solution; ATP at Km. The format is biochemical. The protocol:
as §1, §2

The target in assay [6] is T7, various kinases (Homo sapiens, UniProt Q96GD4).
T7 construct: purchased Life Technologies
Described as above. Type of assay: biochemical. Particulars: kinase AURKB (Aurora B); 10 μM solution; ATP at Km. The protocol:
as §1, §2

The next assay deals with T8, ABL1 M351T (Homo sapiens, UniProt P00519, M351T).
T8 construct: purchased Life Technologies
Nature of the assay: LANTHASCREEN Eu Kinase Binding Assay. The note with it: 10 μM solutions, two independent measurements. Here is the method: (§3) Measurement of inhibition of various kinases was also performed by binding a tracer to a kinase and the addition of Europium labeled anti-tag antibodies. When bound to the same kinase, the tracer and Europium interact through FRET and fluoresce. Binding of the tracer and antibody to a kinase results in a high degree of FRET, whereas displacement of the tracer with a kinase inhibitor results in a loss of FRET. This method of measurement removes the cleavage step necessary in the above FRET measurement.
(§4) The kinase inhibitory activity of various 10 μM solutions of various fractions was measured (LANTHASCREEN Eu Kinase Binding Assay Profiling Service available from Life Technologies). In these measurements, greater percent displacement indicates greater kinase inhibition. […] The average % displacement is representative of two independent measurements.
On the technique in general: TR-FRET usually uses a lanthanide donor and a delayed reading to cut background.

In a further assay the target is T9, ALK C1156Y (Homo sapiens, UniProt Q9UM73, C1156Y).
T9 construct: purchased Life Technologies
Nature of the assay: LANTHASCREEN Eu Kinase Binding Assay. Particulars: 10 μM solutions, two independent measurements. The protocol:
as §3, §4

The target of another assay is T10, EGFR (ErbB1) d746-750 (Homo sapiens, UniProt P00533, DEL746-750).
T10 construct: purchased Life Technologies
Nature of the assay: LANTHASCREEN Eu Kinase Binding Assay. The note with it: 10 μM solutions, two independent measurements. Here is the method: as §3, §4

The target in another assay is T11, KIT D816H (Homo sapiens, UniProt P10721, D816H).
T11 construct: purchased Life Technologies
The experiment in a line: LANTHASCREEN Eu Kinase Binding Assay. The note with it: 10 μM solutions, two independent measurements. Here is the method:
as §3, §4

A further assay has as its target T12, KIT N822K (Homo sapiens, UniProt P10721, N822K).
T12 construct: purchased Life Technologies
Nature of the assay: LANTHASCREEN Eu Kinase Binding Assay. The note with it: 10 μM solutions, two independent measurements. Here is the method: as §3, §4

The target of the next assay is T13, KIT Y823D (Homo sapiens, UniProt P10721, Y823D).
T13 construct: purchased Life Technologies
Nature of the assay: LANTHASCREEN Eu Kinase Binding Assay. Particulars: 10 μM solutions, two independent measurements. Here is the method:
as §3, §4

In the next assay the target is T14, TTK (Homo sapiens, UniProt P33981).
T14 construct: purchased Life Technologies
T14 sequence (P33981 1-857): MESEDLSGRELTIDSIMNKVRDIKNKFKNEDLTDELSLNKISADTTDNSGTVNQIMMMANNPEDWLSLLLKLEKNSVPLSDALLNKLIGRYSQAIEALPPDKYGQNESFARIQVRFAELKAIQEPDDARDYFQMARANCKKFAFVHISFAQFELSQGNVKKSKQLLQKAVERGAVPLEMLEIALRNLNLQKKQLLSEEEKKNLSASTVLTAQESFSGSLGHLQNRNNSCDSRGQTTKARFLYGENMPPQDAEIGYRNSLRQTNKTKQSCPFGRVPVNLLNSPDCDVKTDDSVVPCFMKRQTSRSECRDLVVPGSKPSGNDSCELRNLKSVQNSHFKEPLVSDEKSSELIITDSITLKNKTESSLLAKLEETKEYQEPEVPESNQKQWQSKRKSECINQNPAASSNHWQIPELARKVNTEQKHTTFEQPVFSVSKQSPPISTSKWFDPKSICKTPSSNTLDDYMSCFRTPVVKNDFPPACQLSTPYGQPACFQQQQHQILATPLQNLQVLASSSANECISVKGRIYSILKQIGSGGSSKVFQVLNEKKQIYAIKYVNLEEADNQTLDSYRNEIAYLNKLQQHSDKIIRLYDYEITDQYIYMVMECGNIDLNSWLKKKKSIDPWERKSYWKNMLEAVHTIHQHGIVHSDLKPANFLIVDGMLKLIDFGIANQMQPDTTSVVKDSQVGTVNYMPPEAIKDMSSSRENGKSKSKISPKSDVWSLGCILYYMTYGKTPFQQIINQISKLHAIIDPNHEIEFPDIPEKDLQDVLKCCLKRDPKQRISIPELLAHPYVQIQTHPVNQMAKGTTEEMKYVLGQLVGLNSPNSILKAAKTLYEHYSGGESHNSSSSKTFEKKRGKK
Nature of the assay: LANTHASCREEN Eu Kinase Binding Assay. Particulars: 10 μM solutions, two independent measurements. The protocol:
as §3, §4

The next assay concerns the target T15, WEE1 (Homo sapiens, UniProt P30291).
T15 construct: purchased Life Technologies
The experiment in a line: LANTHASCREEN Eu Kinase Binding Assay. The note with it: 10 μM solutions, two independent measurements. Here is the method: as §3, §4

T12 sequence (P10721 26-976 N822K): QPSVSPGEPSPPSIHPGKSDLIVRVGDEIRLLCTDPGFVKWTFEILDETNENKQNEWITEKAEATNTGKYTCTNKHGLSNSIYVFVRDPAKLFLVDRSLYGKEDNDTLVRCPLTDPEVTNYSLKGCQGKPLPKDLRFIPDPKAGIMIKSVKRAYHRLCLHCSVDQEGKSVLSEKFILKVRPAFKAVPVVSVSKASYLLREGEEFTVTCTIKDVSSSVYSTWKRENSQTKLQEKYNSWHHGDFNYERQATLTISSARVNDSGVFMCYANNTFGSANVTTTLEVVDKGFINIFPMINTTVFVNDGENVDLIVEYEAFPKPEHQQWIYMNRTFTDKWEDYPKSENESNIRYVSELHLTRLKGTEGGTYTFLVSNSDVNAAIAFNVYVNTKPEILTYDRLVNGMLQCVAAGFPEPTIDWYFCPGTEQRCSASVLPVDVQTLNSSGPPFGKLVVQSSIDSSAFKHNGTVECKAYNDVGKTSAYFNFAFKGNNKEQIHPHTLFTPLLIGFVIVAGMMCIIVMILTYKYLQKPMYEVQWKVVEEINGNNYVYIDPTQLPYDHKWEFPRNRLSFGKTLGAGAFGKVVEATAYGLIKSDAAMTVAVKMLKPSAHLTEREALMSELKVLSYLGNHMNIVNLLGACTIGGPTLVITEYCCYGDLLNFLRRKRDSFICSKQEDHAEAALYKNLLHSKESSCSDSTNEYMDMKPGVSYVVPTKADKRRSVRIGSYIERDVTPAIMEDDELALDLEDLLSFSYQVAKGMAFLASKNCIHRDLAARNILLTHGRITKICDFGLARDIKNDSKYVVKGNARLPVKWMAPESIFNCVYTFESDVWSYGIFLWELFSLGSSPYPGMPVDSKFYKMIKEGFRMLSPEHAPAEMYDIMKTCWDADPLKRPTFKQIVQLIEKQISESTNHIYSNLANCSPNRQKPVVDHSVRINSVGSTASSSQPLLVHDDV
T9 sequence (Q9UM73 19-1620 C1156Y): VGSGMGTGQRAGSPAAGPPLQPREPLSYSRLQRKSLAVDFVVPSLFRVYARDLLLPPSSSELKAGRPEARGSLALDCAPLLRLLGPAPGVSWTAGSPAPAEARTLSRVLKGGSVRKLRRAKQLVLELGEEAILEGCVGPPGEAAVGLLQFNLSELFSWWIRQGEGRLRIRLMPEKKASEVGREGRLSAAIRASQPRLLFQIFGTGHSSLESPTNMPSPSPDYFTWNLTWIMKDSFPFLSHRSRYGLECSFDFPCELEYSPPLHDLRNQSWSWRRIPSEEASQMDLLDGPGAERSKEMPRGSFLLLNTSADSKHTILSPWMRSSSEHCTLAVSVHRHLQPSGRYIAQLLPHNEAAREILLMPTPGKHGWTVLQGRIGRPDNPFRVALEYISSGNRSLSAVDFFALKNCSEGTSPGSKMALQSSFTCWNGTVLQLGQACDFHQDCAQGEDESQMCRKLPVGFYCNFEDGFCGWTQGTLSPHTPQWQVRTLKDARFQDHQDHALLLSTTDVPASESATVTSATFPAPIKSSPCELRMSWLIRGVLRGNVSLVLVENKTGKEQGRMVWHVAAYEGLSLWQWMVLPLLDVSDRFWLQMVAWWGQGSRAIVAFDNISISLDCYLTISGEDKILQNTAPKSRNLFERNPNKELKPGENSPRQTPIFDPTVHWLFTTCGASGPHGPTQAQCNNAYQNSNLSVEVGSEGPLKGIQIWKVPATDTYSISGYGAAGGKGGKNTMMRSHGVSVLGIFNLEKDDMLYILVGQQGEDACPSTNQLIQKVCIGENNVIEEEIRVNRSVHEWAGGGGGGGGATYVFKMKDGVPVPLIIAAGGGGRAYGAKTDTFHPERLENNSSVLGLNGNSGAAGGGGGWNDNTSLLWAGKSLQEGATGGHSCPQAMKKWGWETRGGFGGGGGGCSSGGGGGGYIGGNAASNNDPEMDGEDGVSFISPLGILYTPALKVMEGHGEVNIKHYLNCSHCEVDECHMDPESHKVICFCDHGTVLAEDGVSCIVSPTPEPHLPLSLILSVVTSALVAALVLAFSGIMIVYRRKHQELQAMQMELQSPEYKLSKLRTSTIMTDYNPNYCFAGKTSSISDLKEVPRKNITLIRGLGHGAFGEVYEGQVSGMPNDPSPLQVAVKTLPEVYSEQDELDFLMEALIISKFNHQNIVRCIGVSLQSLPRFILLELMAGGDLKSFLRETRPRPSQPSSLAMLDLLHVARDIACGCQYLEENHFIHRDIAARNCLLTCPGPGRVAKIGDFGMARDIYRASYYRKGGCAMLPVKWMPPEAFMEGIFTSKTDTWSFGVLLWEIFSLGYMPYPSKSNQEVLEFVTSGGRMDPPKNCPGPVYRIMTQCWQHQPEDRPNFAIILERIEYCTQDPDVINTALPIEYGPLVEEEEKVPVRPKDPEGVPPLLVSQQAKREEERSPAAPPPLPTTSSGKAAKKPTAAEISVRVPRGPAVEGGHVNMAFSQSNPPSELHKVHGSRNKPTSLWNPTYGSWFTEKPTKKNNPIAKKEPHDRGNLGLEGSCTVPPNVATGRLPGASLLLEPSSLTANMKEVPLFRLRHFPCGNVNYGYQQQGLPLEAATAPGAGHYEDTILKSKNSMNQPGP
T1 sequence (Q9NYA1 whole entry): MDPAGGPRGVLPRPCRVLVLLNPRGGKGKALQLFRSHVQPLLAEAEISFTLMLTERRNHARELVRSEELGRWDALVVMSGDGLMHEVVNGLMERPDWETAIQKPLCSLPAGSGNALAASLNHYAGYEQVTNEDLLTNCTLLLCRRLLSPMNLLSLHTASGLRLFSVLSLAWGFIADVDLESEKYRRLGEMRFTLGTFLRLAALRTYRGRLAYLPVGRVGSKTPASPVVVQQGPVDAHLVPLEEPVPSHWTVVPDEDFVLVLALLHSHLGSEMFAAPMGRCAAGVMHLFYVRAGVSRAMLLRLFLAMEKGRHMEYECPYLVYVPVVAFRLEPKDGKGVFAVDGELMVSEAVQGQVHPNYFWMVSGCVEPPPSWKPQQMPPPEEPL
T5 sequence (P48736 whole entry): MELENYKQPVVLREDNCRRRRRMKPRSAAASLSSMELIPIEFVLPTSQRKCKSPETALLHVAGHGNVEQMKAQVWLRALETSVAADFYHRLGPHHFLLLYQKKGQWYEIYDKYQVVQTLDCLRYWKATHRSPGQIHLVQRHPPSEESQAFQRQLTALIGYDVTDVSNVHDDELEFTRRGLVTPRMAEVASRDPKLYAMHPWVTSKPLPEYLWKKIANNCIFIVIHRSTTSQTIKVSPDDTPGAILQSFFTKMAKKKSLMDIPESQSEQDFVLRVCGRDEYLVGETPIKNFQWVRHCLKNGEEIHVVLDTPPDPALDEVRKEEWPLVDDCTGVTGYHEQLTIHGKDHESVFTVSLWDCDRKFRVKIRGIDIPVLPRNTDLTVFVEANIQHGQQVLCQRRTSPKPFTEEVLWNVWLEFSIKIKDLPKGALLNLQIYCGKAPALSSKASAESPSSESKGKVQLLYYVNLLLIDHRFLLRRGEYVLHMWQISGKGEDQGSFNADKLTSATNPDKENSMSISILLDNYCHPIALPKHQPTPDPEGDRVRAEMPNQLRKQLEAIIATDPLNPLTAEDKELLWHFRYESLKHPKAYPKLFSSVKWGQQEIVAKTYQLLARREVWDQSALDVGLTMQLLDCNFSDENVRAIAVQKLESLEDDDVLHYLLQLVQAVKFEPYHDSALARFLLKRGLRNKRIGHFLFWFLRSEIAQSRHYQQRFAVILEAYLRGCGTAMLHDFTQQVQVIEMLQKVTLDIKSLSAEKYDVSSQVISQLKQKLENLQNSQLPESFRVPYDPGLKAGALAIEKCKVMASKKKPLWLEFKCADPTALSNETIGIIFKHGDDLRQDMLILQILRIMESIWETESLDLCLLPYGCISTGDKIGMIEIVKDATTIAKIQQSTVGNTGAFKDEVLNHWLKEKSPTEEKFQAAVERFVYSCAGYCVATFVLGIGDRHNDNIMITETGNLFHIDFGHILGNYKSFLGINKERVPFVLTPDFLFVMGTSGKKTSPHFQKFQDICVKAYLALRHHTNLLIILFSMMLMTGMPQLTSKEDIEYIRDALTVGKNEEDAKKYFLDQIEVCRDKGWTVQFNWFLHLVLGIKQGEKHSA
T7 sequence (Q96GD4 whole entry): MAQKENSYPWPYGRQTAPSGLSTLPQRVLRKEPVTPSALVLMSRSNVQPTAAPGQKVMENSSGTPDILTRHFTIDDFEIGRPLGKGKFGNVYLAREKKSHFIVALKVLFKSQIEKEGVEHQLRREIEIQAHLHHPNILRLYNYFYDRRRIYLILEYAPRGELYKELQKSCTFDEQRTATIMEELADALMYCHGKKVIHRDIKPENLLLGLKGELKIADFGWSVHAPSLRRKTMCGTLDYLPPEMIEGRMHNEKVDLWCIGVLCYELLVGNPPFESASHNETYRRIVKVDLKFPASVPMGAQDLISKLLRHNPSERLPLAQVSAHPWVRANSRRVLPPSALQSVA
T15 sequence (P30291 whole entry): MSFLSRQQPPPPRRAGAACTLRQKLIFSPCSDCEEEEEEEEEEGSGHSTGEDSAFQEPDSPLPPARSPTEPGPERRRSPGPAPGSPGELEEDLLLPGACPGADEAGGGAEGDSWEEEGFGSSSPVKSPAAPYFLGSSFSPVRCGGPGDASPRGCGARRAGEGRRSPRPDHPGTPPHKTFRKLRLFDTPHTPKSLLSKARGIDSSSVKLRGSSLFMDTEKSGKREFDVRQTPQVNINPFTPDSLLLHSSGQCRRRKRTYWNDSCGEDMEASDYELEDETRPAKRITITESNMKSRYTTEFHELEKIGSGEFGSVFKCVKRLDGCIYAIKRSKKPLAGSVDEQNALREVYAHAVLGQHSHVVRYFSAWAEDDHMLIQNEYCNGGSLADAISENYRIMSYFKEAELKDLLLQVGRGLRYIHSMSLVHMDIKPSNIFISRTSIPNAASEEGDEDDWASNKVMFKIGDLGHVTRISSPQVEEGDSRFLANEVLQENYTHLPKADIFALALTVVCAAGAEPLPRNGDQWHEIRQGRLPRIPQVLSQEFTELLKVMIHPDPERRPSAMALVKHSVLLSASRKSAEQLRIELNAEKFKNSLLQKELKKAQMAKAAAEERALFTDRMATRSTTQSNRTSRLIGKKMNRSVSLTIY
T13 sequence (P10721 26-976 Y823D): as the sequence (P10721 26-976 N822K) above, with K797N, Y798D counted along it

As to `C[N+](C)(C)CCOP(=O)([O-])OC[C@H](O)CO` [GPC, glycerophosphocholine], the “% WGI (percentage of tumor weight growth inhibition as compared to the control)” value in [1] is recorded as −41.9%. Besides, the “Average % Inhibition” value is reported as −5% at SPHK1 kinase; −1% on mTOR kinase; 22% on various kinases [2]; 7% at various kinases [3]; 2% at various kinases [4]; 14% on various kinases [5]. Also, the “Average % Inhibition” value on various kinases [6] worked out at 13%. Besides, the “Average % Displacement” value on ABL1 M351T is 4%; on ALK C1156Y it was 4%; on EGFR (ErbB1) d746-750, −1%; on KIT D816H, 1%; on KIT N822K, −1%; on KIT Y823D it was 2%. Moreover, the “Average % Displacement” value at TTK turned out to be 24%; on WEE1 it was 5%.
